Here are results for 20 compounds from the supplement of paper PMC4862054.

Holding throughout (assay): normalised viability (% of control), CellTiter-Blue; higher = more viable cells (about 100 = DMSO control)
Settings in all cases: incubation time: 72 h
(Alamar Blue is a resazurin reagent that responds to reducing activity.)

Assay [1] has as its system CAL-51. Here is the method: (§1)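 DSRT, CellTiter-Blue viability, 72 h incubation. Signal is normalised to DMSO and benzethonium chloride controls. Value is the normalised response at dose 9.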
The subject of assay [2] is MDA-MB-453. Here is the method: as §1
Assay [3] deals with DU-4475. As for the experimental part: as §1
Assay [4] concerns CAL-148. As for the experimental part:
as §1

Assay [5] concerns CAL-85-1. Here is the method: as §1
Assay [6] concerns HDQ-P1. As for the experimental part:
as §1

Assay [7] concerns CAL-51. Here is the method: (§2)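 DSRT, CellTiter-Blue viability, 72 h incubation. Signal is normalised to DMSO and benzethonium chloride controls. Value is the normalised response at dose 8.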
The source holds these as a separate data set.

Assay [8] has as its system MDA-MB-453. As for the experimental part: as §2
The source holds these as a separate data set.

Assay [9] relates to DU-4475. Here is the method: as §2
The source holds these as a separate data set.

Assay [10] relates to CAL-148. As for the experimental part:
as §2
The source holds these as a separate data set.

Assay [11] has as its system CAL-85-1. Here is the method:
as §2
The source holds these as a separate data set.

Assay [12] has as its system HDQ-P1. Here is the method:
as §2
The source holds these as a separate data set.

Where “and” joins values, the source holds several entries; their conditions need not be identical. Equal values may be shown once.

As to `O=C(NC[C@H](O)CO)c1ccncc1Nc1ccc(I)cc1F` (10000 nM), the normalised viability in the assay on CAL-51 [1] is 65%; with MDA-MB-453 [2], 37.1%; with DU-4475 [3] it was -0.44%; in the assay with CAL-148 [4], 70.5%; in the assay with CAL-85-1 [5] it was 39.9%; with HDQ-P1 [6], 46.3%.

Turning to `Nc1nc(=O)c2c([nH]1)NCC(CNc1ccc(C(=O)N[C@@H](CCC(=O)O)C(=O)O)cc1)N2C=O` (mixture of isomers) [Folinic acid] (297 nM), the normalised viability was 92.8% with CAL-51 [7]; 106% with MDA-MB-453 [8]; 98.8% in the assay with DU-4475 [9]; 95.2% with CAL-148 [10]; 100% with CAL-85-1 [11]; 122% with HDQ-P1 [12].

In the case of `O=C1c2c(O)ccc(O)c2C(=O)c2c(NCCNCCO)ccc(NCCNCCO)c21` [Mitoxantrone] (300 nM), the normalised viability in the assay with CAL-51 [7] stood at 28%; in the assay with MDA-MB-453 [8], 66%; in the assay on DU-4475 [9], 9.52%; in the assay on CAL-148 [10] it was 12.7%; with CAL-85-1 [11], 59.1%; in the assay with HDQ-P1 [12], 52.5%.

Turning to `Cn1cc(CNCC2CCN(c3ncc(C(=O)NO)cn3)CC2)c2ccccc21` (1000 nM), the normalised viability was 2.6% in the assay with CAL-51 [1]; 2.12% in the assay on MDA-MB-453 [2]; 3.03% in the assay on DU-4475 [3]; 0.7% in the assay with CAL-148 [4]; 3.26% in the assay with CAL-85-1 [5]; 18.9% in the assay on HDQ-P1 [6].

`O=C(NC[C@H](O)CO)c1ccncc1Nc1ccc(I)cc1F` (3000 nM): the normalised viability in the assay on CAL-51 [7] came out at 78.9%; with MDA-MB-453 [8], 57.3%; with DU-4475 [9] it was 0.63%; in the assay with CAL-148 [10], 66.8%; with CAL-85-1 [11], 48%; in the assay with HDQ-P1 [12] it was 57.4%.

Turning to `Cc1c(CN2CCN(C(=O)[C@H](C)O)CC2)sc2c(N3CCOCC3)nc(-c3cnc(N)nc3)nc12` [GDC-0980] (3000 nM), the normalised viability was 7.42% in the assay with CAL-51 [7]; 6.67% in the assay on MDA-MB-453 [8]; 19.4% in the assay on DU-4475 [9]; 5.28% in the assay on CAL-148 [10]; 16.9% in the assay with CAL-85-1 [11]; 14.2% in the assay with HDQ-P1 [12].

On to `Nc1cccc2c1CN(C1CCC(=O)NC1=O)C2=O` (stereo not given) [Lenalidomide] (3000 nM), for which the normalised viability with CAL-51 [7] is 109% and 105%; in the assay on MDA-MB-453 [8], 96.9% and 117%; in the assay with DU-4475 [9], 101% and 100%; in the assay on CAL-148 [10], 80.2% and 98.3%; in the assay on CAL-85-1 [11], 88.6% and 90.2%; in the assay with HDQ-P1 [12] it was 93.5% and 92.2%.

With `O=C(CCBr)N1CCN(C(=O)CCBr)CC1` [Pipobroman] (3000 nM), the normalised viability in the assay with CAL-51 [7] turned out to be 124%; in the assay on MDA-MB-453 [8], 108%; in the assay with DU-4475 [9], 106%; in the assay on CAL-148 [10], 104%; in the assay on CAL-85-1 [11], 102%; in the assay on HDQ-P1 [12], 100%.

Regarding `c1cc(CN2CCCNCCNCCCNCC2)ccc1CN1CCCNCCNCCCNCC1` [Plerixafor] (750 nM), the normalised viability was found to be 103% in the assay with CAL-51 [7]; 92.5% in the assay on MDA-MB-453 [8]; 95.9% in the assay with DU-4475 [9]; 79.1% in the assay with CAL-148 [10]; 93% in the assay on CAL-85-1 [11]; 119% with HDQ-P1 [12].

In the case of `CS(=O)(=O)N1CCN(Cc2cc3nc(-c4cccc5[nH]ncc45)nc(N4CCOCC4)c3s2)CC1` [GDC-0941] (3000 nM), the normalised viability with CAL-51 [7] came out at 14.3%; in the assay with MDA-MB-453 [8], 10.6%; in the assay with DU-4475 [9], 104%; with CAL-148 [10] it was 18.6%; in the assay on CAL-85-1 [11], 31.9%; in the assay on HDQ-P1 [12], 14.5%.

As to `CS(=O)(=O)N1CCN(Cc2cc3nc(-c4cccc5[nH]ncc45)nc(N4CCOCC4)c3s2)CC1` [GDC-0941] (10000 nM), the normalised viability was 2.35% in the assay with CAL-51 [1]; 5.58% in the assay on MDA-MB-453 [2]; -0.76% with DU-4475 [3]; 0.59% with CAL-148 [4]; 13.3% with CAL-85-1 [5]; 12.8% in the assay on HDQ-P1 [6].

Turning to `c1cc(CN2CCCNCCNCCCNCC2)ccc1CN1CCCNCCNCCCNCC1` [Plerixafor] (2500 nM), the normalised viability was found to be 111% in the assay on CAL-51 [1]; 103% with MDA-MB-453 [2]; 99.3% in the assay on DU-4475 [3]; 83.5% in the assay with CAL-148 [4]; 97% with CAL-85-1 [5]; 125% in the assay with HDQ-P1 [6].

Turning to `O=S(=O)(c1cccc2cnccc12)N1CCCNCC1` [Fasudil] (10000 nM), the normalised viability in the assay on CAL-51 [1] is 109%; in the assay on MDA-MB-453 [2], 57.8%; in the assay with DU-4475 [3] it was 101%; in the assay on CAL-148 [4], 82.3%; in the assay with CAL-85-1 [5], 99.3%; in the assay with HDQ-P1 [6], 180%.

Regarding `CO[C@@H](C(=O)N1Cc2[nH]nc(NC(=O)c3ccc(N4CCN(C)CC4)cc3)c2C1)c1ccccc1` [Danusertib] (3000 nM), the normalised viability in the assay on CAL-51 [7] was 25.9%; in the assay with MDA-MB-453 [8], 34.2%; in the assay with DU-4475 [9], 23.1%; in the assay with CAL-148 [10], 53.5%; in the assay with CAL-85-1 [11], 40.5%; with HDQ-P1 [12] it was 27.8%.

Consider `O=C(Nc1c[nH]nc1-c1nc2ccc(CN3CCOCC3)cc2[nH]1)NC1CC1` [AT9283] (10000 nM), for which the normalised viability is 4.48% in the assay on CAL-51 [1]; 11.2% in the assay on MDA-MB-453 [2]; -1.62% in the assay on DU-4475 [3]; 1.55% in the assay on CAL-148 [4]; -0.09% with CAL-85-1 [5]; 7.44% in the assay on HDQ-P1 [6].

In the case of `CCN(CC)CCNC(=O)c1c(C)[nH]c(/C=C2\C(=O)Nc3ccc(F)cc32)c1C` [Sunitinib] (300 nM), the normalised viability in the assay with CAL-51 [7] was 113% and 96%; with MDA-MB-453 [8], 101% and 83.8%; in the assay on DU-4475 [9] it was 102% and 94.5%; in the assay on CAL-148 [10], 93.2% and 108%; with CAL-85-1 [11] it was 107% and 105%; in the assay on HDQ-P1 [12] it was 97.1% and 115%.

On to `Cc1cccc(-c2nn3c(c2-c2ccnc4ccc(C(N)=O)cc24)CCC3)n1` (1000 nM), for which the normalised viability in the assay on CAL-51 [1] amounted to 103%; with MDA-MB-453 [2] it was 104%; with DU-4475 [3], 124%; in the assay with CAL-148 [4], 79.7%; in the assay with CAL-85-1 [5] it was 101%; in the assay with HDQ-P1 [6], 133%.

With `O=C(Nc1c[nH]nc1-c1nc2ccc(CN3CCOCC3)cc2[nH]1)NC1CC1` [AT9283] (3000 nM), the normalised viability in the assay on CAL-51 [7] is 25.5%; in the assay with MDA-MB-453 [8], 26.9%; in the assay on DU-4475 [9], 0.96%; in the assay with CAL-148 [10], 67.2%; in the assay with CAL-85-1 [11] it was 16.8%; in the assay with HDQ-P1 [12], 25.9%.

`Nc1nc(=O)c2c([nH]1)NCC(CNc1ccc(C(=O)N[C@@H](CCC(=O)O)C(=O)O)cc1)N2C=O` (mixture of isomers) [Folinic acid] (990 nM): the normalised viability in the assay with CAL-51 [1] is 94.1%; in the assay on MDA-MB-453 [2], 103%; in the assay on DU-4475 [3], 115%; in the assay with CAL-148 [4], 105%; with CAL-85-1 [5], 98%; in the assay on HDQ-P1 [6], 86.9%.

Consider `Cc1nc(Nc2ncc(C(=O)Nc3c(C)cccc3Cl)s2)cc(N2CCN(CCO)CC2)n1` [Dasatinib] (300 nM), for which the normalised viability is 41.5% and 39.9% with CAL-51 [7]; 99.2% and 103% in the assay with MDA-MB-453 [8]; 102% and 104% with DU-4475 [9]; 90% and 89.1% in the assay with CAL-148 [10]; 51.2% and 43.6% in the assay on CAL-85-1 [11]; 9.87% and 10.7% with HDQ-P1 [12].
